Assay results reported in article PMC5750657, “In Vitro Phase I Metabolism of CRV431, a Novel Oral Drug Candidate for Chronic Hepatitis B” (Pharmaceutics, 2017).

Key:
Format in all cases: in vitro ADME
CYP2C19 = experiment: Chemical inhibition of CRV431 loss in human liver microsomes: CYP2C19; conditions: pH 7.4, probe CRV431 (1 μM; loss of parent), metabolism-dependent inhibitor (also inhibits CYP3A4/5), 30 min pre-incubation
Protocol: (§1) This experiment was carried out manually to verify the role of individual CYP enzymes in the metabolism of CRV431. […] Incubations were conducted at 37 ± 1 °C in 0.2 mL incubation mixtures (final volume) containing potassium phosphate buffer (50 mM, pH 7.4), MgCl2 (3 mM) and EDTA (1 mM, pH 7.4), with an NADPH-generating system as cofactor. The NADPH-generating system consisted of NADP (1 mM, pH 7.4), glucose-6-phosphate (5 mM, pH 7.4), and glucose-6-phosphate dehydrogenase (1 Unit/mL). CRV431 was added to the incubation mixtures in DMSO (0.1% v/v). For incubations with direct-acting chemical inhibitors, reactions were initiated by the addition of cofactor, and stopped by the addition of an equal volume of acetonitrile stop reagent. For incubations with metabolism-dependent chemical inhibitors, 30 min pre-incubations of human liver microsomes and the inhibitor were initiated by the addition of the cofactor. CRV431 was then added to the mixture to be incubated for 15 min. Reactions were stopped by the addition of an equal volume of acetonitrile stop reagent. Samples were analyzed by LC-MS/MS to quantify the amount of unchanged CRV431. Control samples with no CYP inhibitor present were conducted in the presence of the solvent used to dissolve the CYP inhibitor (“solvent control”).
(§2) Samples were analyzed by LC-MS/MS on a SCIEX 4000 QTrap mass spectrometer (Sciex, Rewood City, CA, USA). […]

[1] = Recombinant CYP panel: incubation with control bactosomes; conditions: CRV431 1 μM, 15 min
Protocol: (§3) This experiment was carried out to determine the cytochrome P450 (CYP) enzymes capable of metabolizing CRV431. […] Reactions were initiated by the addition of cofactor, and were terminated at zero and 15 min by the addition of 175 μL ice-cold methanol.
(§4) The electrospray voltage was set at 4500 volts.

recombinant human CYP2D6 = molecular target: T1, recombinant human CYP2D6 (Homo sapiens, UniProt P10635); experiment: Metabolism by recombinant human CYP enzymes: CYP2D6; conditions: CRV431 1 μM; 50 pmol CYP/mL; 15 min
T1 construct: purchased Sekisui Xenotech, Kansas City, MO, USA
Protocol: as §3, §4

[2] = CRV431 metabolite profile in human liver microsomes (ESI-LCMS); conditions: pH 7.4; for Amount of CRV431 remaining: microsomes, 1 μg/mL
Protocol: (§5) Human and rat liver microsomes were obtained from Xenotech (Kansas City, MO, USA) and stored at −80 °C. Monkey liver microsomes were obtained from Thermo Fisher Scientific (Waltham, MA, USA) and stored at −80 °C. Preliminary microsomal biotransformation experiments were run with 0.1, 1, and 10 μg/mL CRV431. CRV431 biotransformation was minimal at 0.1 μg/mL, while both 1 and 10 μg/mL CRV431 gave sufficient metabolite quantity and identical metabolite profiles. Additionally, preliminary experiments were conducted with human liver microsome (HLM) levels ranging for 0.125 to 1 mg. Subsequent microsomal biotransformation experiments were conducted using 0.5 mg of microsome per assay.
(§6) Thawed microsome 20 mg/mL stocks were diluted 32× into cold buffer (Phosphate pH 7.4 + MgCl2 3 mM + EDTA 1 mM) to 0.625 mg/mL, and stored on ice. For experiments with CRV431, 2 μL of […] stocks were added to cold 1-mL microsomes (500× dilution) to generate the 1 μg/mL samples. […]. Samples were mixed by vortexing, and 160 μL was transferred into tubes containing 40 μL buffer on ice. Metabolic activity was stopped by the addition of ice-cold methanol (200 μL), followed by vortexing for an additional 10 s; these were zero-time samples. The extraction was completed by waiting 5 min, vortexing samples again for 5 s, then spinning the samples for 10 min at 3300 rpm at 4 °C in a pre-cooled microcentrifuge. The supernatant (325 μL) was transferred to new tubes and stored at −80 °C.
(§7) For time course experiments, metabolism was initiated by adding 40 μL of NADPH Regenerating System (5 mg/mL NADP, 6.5 mg/mL G6P and 5 units/mL of G6P dehydrogenase). The sample was vortexed for 2 s and placed in a 37 °C bath. For CRV431 experiments at time points 10 min, 20 min, 40 min, and 80 min, 200 μL of ice-cold methanol was added to the 200 μL microsome reactions, and extracted as described above. Samples were stored at −80 °C. For verapamil experiments at 15 min, 200 μL of ice-cold methanol was added to the 200 μL microsome reactions and extracted as described above. Samples were stored at −80 °C.
(§8) Microsome extracts were removed from the freezer (−80 °C) and left to thaw at room temperature. Aliquots (50 μL) were removed and placed in 2 mL plastic Eppendorf microcentrifuge tubes, to which 200 μL of a 0.2 M ZnSO4 solution (0.2 M ZnSO4 in water, plus HPLC grade methanol, 1:4, v/v) was added as protein precipitating reagent. The tubes were capped and vortexed for 10 s, and then left on the benchtop for 10 min. Samples were then centrifuged at 3300 rpm for 10 min. The clear supernatant (≈150 μL) was transferred to an appropriately labeled LC-MS autosampler vial and capped.
(§9) Samples were analyzed by electrospray ionization liquid chromatography mass spectrometry (ESI-LCMS) on an Agilent HP 1100 LC-MS. Samples were placed in an autosampler maintained at 5 °C. CRV431 microsomal extracts (20 μL) were injected onto a Zorbax SB-C18 reverse phase HPLC column (1.8 μm Rapid Resolution HT Cartridge, 4.6 × 30 mm (Agilent, Santa Clara, CA, USA) maintained at 75 °C, and the components were separated using an acetonitrile–water gradient system (Table 2). The sodium adducts of CRV431 (1326 m/z) and metabolites were analyzed by mass spectrometry (MS) using electrospray ionization (ESI) in positive ion mode. The ESI–MS was optimized with N2 gas temperature set at 350 °C and drying gas at […]. The fragmentor and capillary voltages were set at 260 and 4000 volts, respectively. The nebulizer pressure was set at 40 psig. For the initial analysis of the microsomal extracts, the ESI–MS was run in scan mode (1260–1460 m/z) to capture all ion signals present. Subsequently, the microsomal extracts were run in selected ion mode (SIM), with the ions identified in the scans.

[3] = Metabolic stability of CRV431 in human liver microsomes
Protocol: Incubations of CRV431 (1 and 10 μM) with pooled human liver microsomes (1 mg protein/mL) were conducted for 30 min. […] CRV431 was added to incubations in DMSO (0.1% v/v). Additional incubations of CRV431 (1 and 10 μM) with human liver microsomes (1 mg protein/mL) were carried out at 0, 15, 30, 60, and 120 min. Reactions were initiated by the addition of the NADPH-generating system, and were stopped by the addition of 175 μL of acetonitrile. The samples were centrifuged (920× g for 10 min at 10 °C), and the supernatant fractions were analyzed by LC-MS/MS (Sciex, Redwood City, CA, USA) to quantify the amount of unchanged CRV431 based on a calibration curve (ranging from 0.01 to 15 μM). Zero-time, zero-cofactor (no NADPH), zero-substrate, and zero-protein served as blanks.
as §4

[4] = CRV431 metabolite profile in rat liver microsomes (ESI-LCMS); conditions: Sprague-Dawley, pH 7.4
Protocol: as §5, §6, §7, §8, §9

recombinant human CYP1A2 = molecular target: T2, recombinant human CYP1A2 (Homo sapiens, UniProt P05177); experiment: Metabolism by recombinant human CYP enzymes: CYP1A2; conditions: CRV431 1 μM; 50 pmol CYP/mL; 15 min
T2 construct: purchased Sekisui Xenotech, Kansas City, MO, USA
T2 sequence (P05177 1-516): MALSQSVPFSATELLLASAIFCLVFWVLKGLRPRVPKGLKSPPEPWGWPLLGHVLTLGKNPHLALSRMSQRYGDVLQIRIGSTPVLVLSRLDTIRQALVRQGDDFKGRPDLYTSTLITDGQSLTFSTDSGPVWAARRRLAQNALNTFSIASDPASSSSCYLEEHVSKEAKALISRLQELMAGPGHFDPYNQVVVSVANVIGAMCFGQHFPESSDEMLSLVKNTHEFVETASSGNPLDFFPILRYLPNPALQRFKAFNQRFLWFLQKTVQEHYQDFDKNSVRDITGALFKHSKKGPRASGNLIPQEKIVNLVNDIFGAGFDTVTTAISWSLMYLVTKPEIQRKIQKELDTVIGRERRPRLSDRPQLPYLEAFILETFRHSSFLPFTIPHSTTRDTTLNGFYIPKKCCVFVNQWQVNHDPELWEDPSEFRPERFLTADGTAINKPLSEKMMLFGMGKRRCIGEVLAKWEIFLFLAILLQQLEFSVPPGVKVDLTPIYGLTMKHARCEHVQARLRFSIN
Protocol: as §3, §4

[5] = test system: other recombinant human CYP enzymes; experiment: Metabolism by the other recombinant human CYP enzymes evaluated; conditions: CRV431 1 and 10 μM; the CYP enzymes of the panel not given; 15 min
Protocol: as §3, §4

CYP2C9 [6] = molecular target: T3, CYP2C9 (Homo sapiens, UniProt P11712); experiment: Metabolism by recombinant human CYP enzymes: CYP2C9; parameters: purchased Sekisui Xenotech, Kansas City, MO, USA; conditions: 50 pmol CYP/mL, 15 min
Protocol: as §3, §4

recombinant human CYP3A4 = molecular target: T4, recombinant human CYP3A4 (Homo sapiens, UniProt P08684); experiment: Metabolism by recombinant human CYP enzymes: CYP3A4; conditions: 50 pmol CYP/mL, 15 min
T4 construct: purchased Sekisui Xenotech, Kansas City, MO, USA
Protocol: as §3, §4

[7] = molecular target: T5, recombinant human CYP2C19 (Homo sapiens, UniProt P33261); experiment: Metabolism by recombinant human CYP enzymes: CYP2C19; conditions: CRV431 1 μM; 50 pmol CYP/mL; 15 min
T5 construct: purchased Sekisui Xenotech, Kansas City, MO, USA
Protocol: as §3, §4

[8] = CRV431 metabolite profile in monkey liver microsomes (ESI-LCMS)
Protocol: as §5, §6, §7, §8, §9

CYP2C9 [9] = molecular target: T3, CYP2C9; experiment: Chemical inhibition of CRV431 loss in human liver microsomes: CYP2C9; parameters: tissue Sekisui Xenotech, Kansas City, MO, USA; host or cells: human liver microsomes; conditions: pH 7.4, probe CRV431 (1 μM; loss of parent), metabolism-dependent inhibitor, 30 min pre-incubation
Protocol: as §1, §2

T3 sequence (P11712 whole entry): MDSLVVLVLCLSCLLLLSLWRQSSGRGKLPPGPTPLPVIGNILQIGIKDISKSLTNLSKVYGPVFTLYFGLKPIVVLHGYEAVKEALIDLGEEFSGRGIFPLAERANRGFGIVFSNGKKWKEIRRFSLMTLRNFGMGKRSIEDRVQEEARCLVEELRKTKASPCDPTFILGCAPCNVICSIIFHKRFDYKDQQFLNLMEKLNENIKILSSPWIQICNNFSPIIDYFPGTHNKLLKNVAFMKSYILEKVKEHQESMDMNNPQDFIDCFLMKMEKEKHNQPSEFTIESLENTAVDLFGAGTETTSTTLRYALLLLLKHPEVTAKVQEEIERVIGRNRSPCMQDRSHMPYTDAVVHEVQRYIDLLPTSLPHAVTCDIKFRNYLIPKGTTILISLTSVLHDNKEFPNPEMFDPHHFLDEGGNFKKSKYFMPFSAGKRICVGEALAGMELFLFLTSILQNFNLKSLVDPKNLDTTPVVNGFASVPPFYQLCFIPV
T4 sequence (P08684 whole entry): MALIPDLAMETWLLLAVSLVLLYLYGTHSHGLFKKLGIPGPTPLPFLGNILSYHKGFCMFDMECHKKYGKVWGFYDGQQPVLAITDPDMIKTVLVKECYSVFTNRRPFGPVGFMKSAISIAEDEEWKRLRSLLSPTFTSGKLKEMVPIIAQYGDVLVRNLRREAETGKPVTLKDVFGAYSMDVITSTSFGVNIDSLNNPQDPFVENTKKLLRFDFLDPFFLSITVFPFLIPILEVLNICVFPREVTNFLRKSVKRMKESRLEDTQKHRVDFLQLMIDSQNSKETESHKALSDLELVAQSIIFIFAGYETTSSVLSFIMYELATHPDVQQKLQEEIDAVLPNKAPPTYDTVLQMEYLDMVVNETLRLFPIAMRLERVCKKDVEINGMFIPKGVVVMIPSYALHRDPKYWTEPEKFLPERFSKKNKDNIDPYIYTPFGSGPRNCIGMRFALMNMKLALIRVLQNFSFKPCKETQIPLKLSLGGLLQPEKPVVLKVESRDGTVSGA
T5 sequence (P33261 whole entry): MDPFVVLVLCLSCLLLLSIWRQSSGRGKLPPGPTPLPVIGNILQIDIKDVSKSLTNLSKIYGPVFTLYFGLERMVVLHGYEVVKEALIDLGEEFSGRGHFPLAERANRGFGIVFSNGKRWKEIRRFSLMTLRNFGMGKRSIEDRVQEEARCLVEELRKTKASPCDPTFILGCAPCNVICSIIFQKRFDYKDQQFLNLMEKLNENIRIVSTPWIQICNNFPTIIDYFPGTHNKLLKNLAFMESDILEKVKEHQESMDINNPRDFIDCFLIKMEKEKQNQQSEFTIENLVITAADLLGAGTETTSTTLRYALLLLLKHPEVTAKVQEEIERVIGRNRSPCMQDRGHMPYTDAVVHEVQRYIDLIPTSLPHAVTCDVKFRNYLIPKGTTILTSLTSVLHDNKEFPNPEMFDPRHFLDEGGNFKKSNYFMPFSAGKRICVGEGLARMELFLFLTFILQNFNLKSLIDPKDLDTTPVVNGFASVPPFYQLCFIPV
T1 sequence (P10635 whole entry): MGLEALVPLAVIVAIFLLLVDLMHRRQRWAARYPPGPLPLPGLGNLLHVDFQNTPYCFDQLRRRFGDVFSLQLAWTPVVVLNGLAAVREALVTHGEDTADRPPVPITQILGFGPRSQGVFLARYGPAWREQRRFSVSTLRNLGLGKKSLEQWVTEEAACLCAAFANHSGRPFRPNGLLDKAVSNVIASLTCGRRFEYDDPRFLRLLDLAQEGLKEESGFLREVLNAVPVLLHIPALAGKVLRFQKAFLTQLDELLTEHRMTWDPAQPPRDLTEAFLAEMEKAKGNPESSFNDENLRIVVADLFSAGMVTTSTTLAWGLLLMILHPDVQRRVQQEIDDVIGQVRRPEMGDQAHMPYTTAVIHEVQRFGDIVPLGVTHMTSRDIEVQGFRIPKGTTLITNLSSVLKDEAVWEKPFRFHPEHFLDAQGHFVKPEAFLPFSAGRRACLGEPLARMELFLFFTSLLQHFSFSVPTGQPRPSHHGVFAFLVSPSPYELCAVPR

For COc1ccc2nc([S@@+]([O-])Cc3ncc(C)c(OC)c3C)[nH]c2c1 [esomeprazole], the inhibition at 15 min (CYP2C19) was 37%.
With CCC1NC(=O)C([C@H](O)[C@H](C)CCCCCCNC(C)=O)N(C)C(=O)C(C(C)C)N(C)C(=O)[C@H](CC(C)C)N(C)C(=O)[C@H](CC(C)C)N(C)C(=O)C(C)NC(=O)[C@H](C)NC(=O)C(CC(C)C)N(C)C(=O)[C@H](C(C)C)NC(=O)[C@H](CC(C)C)N(C)C(=O)C(C)N(C)C1=O (stereo in doubt) [CRV431] the “Loss of CRV431” value [1] was 24%, the “Disappearance of CRV431” value (recombinant human CYP2D6) was 32% and the “% of Total Drug-Related Mass Versus Time (minutes) 0 min” value ([2]; 0 min, 1 ug/mL) was 96.4%. For the same molecule, the “% of Total Drug-Related Mass Versus Time (minutes) 10 min” value ([2]; 10 min, 1 ug/mL) was 57.0%, the “% of Total Drug-Related Mass Versus Time (minutes) 20 min” value ([2]; 20 min, 1 ug/mL) was 27.5% and the “% of Total Drug-Related Mass Versus Time (minutes) 40 min” value ([2]; 40 min, 1 ug/mL) was 10.4%. The “% of Total Drug-Related Mass Versus Time (minutes) 80 min” value ([2]; 80 min, 1 ug/mL) was 4.0%, the “Amount of CRV431 remaining” value ([2]; 10 min) was 71.8% and the “Amount of CRV431 remaining” value ([2]; 80 min) was 5.3%. The “Biotransformation of CRV431” value ([3]; 1 and 10 μM, 1 mg protein/mL, after 60 min incubation, with NADPH-generating system) was “nearly complete”, the “Biotransformation of CRV431” value ([3]; absence of microsomal proteins and the NADPH-generating system, same time period) was “no biotransformation” and the “% of Total Drug-Related Mass Versus Time (minutes) 0 min” value ([4]; 0 min, 1 ug/mL) was 96.2%. For the same molecule, the “% of Total Drug-Related Mass Versus Time (minutes) 10 min” value ([4]; 10 min, 1 ug/mL) was 95.4%, the “% of Total Drug-Related Mass Versus Time (minutes) 20 min” value ([4]; 20 min, 1 ug/mL) was 94.6% and the “% of Total Drug-Related Mass Versus Time (minutes) 40 min” value ([4]; 40 min, 1 ug/mL) was 93.6%. The “% of Total Drug-Related Mass Versus Time (minutes) 80 min” value ([4]; 80 min, 1 ug/mL) was 92.3%, the “Amount of CRV431 remaining” value ([4]; microsomes, 80 min, 1 μg/mL) was 92.3% and the “Disappearance of CRV431” value (recombinant human CYP1A2) was 19%. For the same molecule, the Substrate loss [5] was “less than 15%”, the “Disappearance of CRV431” value (CYP2C9 [6]; CRV431 1 μM) was 27% and the “Loss of CRV431” value (CYP2C9 [6]; CRV431 10 μM) was 27%. For the same molecule, the “Disappearance of CRV431” value (recombinant human CYP3A4; CRV431 1 μM) was 64%, the “Loss of CRV431” value (recombinant human CYP3A4; CRV431 10 μM) was 41% and the “Disappearance of CRV431” value [7] was 17%. The “Rate of CRV431 metabolism in monkey liver microsomes, greater than in human microsomes” value ([8]; monkey relative to human liver microsomes) was “at least five-fold”, the “% of Total Drug-Related Mass Versus Time (minutes) 0 min” value ([8]; monkey, 0 min, 1 ug/mL, pH 7.4) was 96.3% and the “% of Total Drug-Related Mass Versus Time (minutes) 2.5 min” value ([8]; monkey, 2.5 min, 1 ug/mL, pH 7.4) was 59.4%. For the same molecule, the “% of Total Drug-Related Mass Versus Time (minutes) 5 min” value ([8]; monkey, 5 min, 1 ug/mL, pH 7.4) was 21.5%, the “% of Total Drug-Related Mass Versus Time (minutes) 10 min” value ([8]; monkey, 10 min, 1 ug/mL, pH 7.4) was 12.3% and the “% of Total Drug-Related Mass Versus Time (minutes) 20 min” value ([8]; monkey, 20 min, 1 ug/mL, pH 7.4) was 4.3%. The “% of Total Drug-Related Mass Versus Time (minutes) 40 min” value ([8]; monkey, 40 min, 1 ug/mL, pH 7.4) was 6.6%, the “% of Total Drug-Related Mass Versus Time (minutes) 80 min” value ([8]; monkey, 80 min, 1 ug/mL, pH 7.4) was 6.7% and the “Amount of CRV431 remaining” value ([8]; monkey, microsomes, 10 min, 1 μg/mL, pH 7.4) was 13.2%.
With O=C(O)COc1ccc(C(=O)c2cccs2)c(Cl)c1Cl [tienilic acid] the inhibition at 15 min (CYP2C9 [9]) was 7%.
